US11213516B2, “Intravaginally applicable devices comprising antiviral compounds” (AICURIS ANTI-INFECTIVE CURES GMBH, priority 2017, dated 2022)

Tests used:
[1] = In vitro release from matrix-type silicone elastomer vaginal rings; assay type: physicochemical; settings: isopropanol/H2O, 37° C.
Method: HPLC analysis was conducted using an Agilent 1200 Series HPLC system, consisting of a quaternary HPLC pump, an auto sampler, an in-line Degasser AF Unit, a dual λ absorbance detector, and a column heater. A BDS Hypersil C18 (Thermo Scientific) column (length 150 mm, id 4.6 mm, particle size 3 μm) was used. The mobile phase comprised 45% of 1% w/v glacial acetic acid and 55% methanol pumped isocratically at a flow rate of 1 mL/min. The sample injection volume was 25 μL, the column temperature was 25° C., and detection was performed at 280 nm. Run time for the method was 5 min
Human-sized (56 mm or ×7.6 mm id), matrix-type, silicone elastomer vaginal rings containing either 25 mg or 400 mg of Pritelivir were manufactured by reaction injection molding of drug+silicone mixes. For the 25 mg rings, 272 mg Pritelivir free base or Pritelivir mesylate salt was weighed into a polypropylene Speedmixer container along with DDU-4320 silicone elastomer Part A (40 g) and Part B (40 g). After mixing (Speedmixer DAK 150 FVZ-K; 3000 rpm for 30 sec), the mixture was transferred to a 60 mL disposable plastic syringe and injected into pre-heated (90° C.) custom, two-cavity ring molds fitted to a laboratory-scale injection molding machine. After 3 minutes, the cured rings were removed from the molds. For the 400 mg rings, 4325 mg of Pritelivir free base or Pritelivir mesylate salt was weighed. Four samples of each ring type were manufactured.
Pritelivir rings were individually placed into stoppered glass flasks containing 100 mL isopropanol/H2O. The flasks were placed in a shaking orbital shaker (37° C., 60 rpm). The release medium was sampled (˜5 mL) every 24 h over a fourteen day period, with complete replacement of the 100 mL release medium at each sampling point to maintain sink conditions. Quantification of Pritelivir free base or Pritelivir mesylate salt concentrations in the samples was performed using the HPLC-UV method.

[2] = Vaginal tissue (biopsy) concentration after intravaginal administration of vaginal ring; assay type: in vivo, Cynomolgus monkeys; settings: 6-fold higher dose; Day 28
Method: (§1) The study was performed in four single dose phases with 28-day sampling period after Phases 1 and 2 (7-day washout period between doses). Vaginal rings were investigated for Pritelivir free base and Pritelivir mesylate salt at two dose levels per formulation. The test items were applied as vaginal ring in Phases 1 and 2 to female monkeys. The study design is below in the Table 3.
Vulval and vaginal biopsies were taken from all animals at the following times in relation to dosing.
For the sampling biopsies were taken with a suitable biopsy instrument. Biopsy samples were snap frozen on dry ice following collection and stored deep frozen (−20° C. or below) until analysis.
After suitable dilution, plasma and vaginal samples were analyzed on UPLC system Waters Acquity UPLC-HSS PFP column with 1.8 μm particles (100×2.1 mm) by gradient elution using 0.1% formic acid and methanol containing 0.1% formic acid. For detection, a time-of-flight mass spectrometer (Xevo GS-2 QTOF, Waters) was used operating in positive ionization mode (MSe analysis). The samples were analyzed for their content of Pritelivir free base.
Vaginal and vulval biopsies were taken 28 Days after administration of intravaginal rings. As biopsies were not weighed prior extraction, weights were estimated based on data from similar investigations using the same settings for biopsies. […]

[3] = Safety and tolerance of Pritelivir loaded rings (clinical signs, body weights); assay type: in vivo, Cynomolgus monkeys; settings: single vaginal doses as rings: 40 or 240 mg free base, 49.6 or 297 mg mesylate
Method: as §1
The study was designed to obtain information on the time-course of unchanged test compound concentrations in plasma and vaginal fluid/tissue, following single intravaginal administration of rings to female Cynomolgus monkeys. Objectives of this study were to determine the safety and tolerance of Pritelivir loaded rings, as well as systemic and local exposure (plasma, vaginal fluid and vaginal and vulval tissue, respectively). Local exposures were compared with in vitro efficacy data of Pritelivir to get an idea on initial pharmacokinetic/pharmacodynamic (PK/PD) parameters for vaginal rings, i.e. to assess the potential ability of a Pritelivir loaded ring to suppress viral replication in the target tissue. Table 9 gives an overview on the EC50 values of Pritelivir on HSV-1 and HSV-2 Data source: Field, H. J., et al., Baseline sensitivity of HSV-1 and HSV-2 clinical isolates and defined acyclovir-resistant strains to the helicase-primase inhibitor pritelivir. Antiviral Res, 2013. 100(2): p. 297-9. […]

- Cumulative Day 14 release ([1]; 25 mg matrix-type ring): 604.13 µg
- Mean Day 1 release ([1]; 25 mg matrix-type ring): 122.17 µg
- Mean Day 14 release ([1]; 25 mg matrix-type ring): 24.77 µg
- Release rate ([1]; 25 mg matrix-type ring): 177.0 µg/day
- Cumulative Day 14 release ([1]; 400 mg matrix-type ring): 2,495.52 μg
- Mean Day 1 release ([1]; 400 mg matrix-type ring): 443.45 µg
- Mean Day 14 release ([1]; 400 mg matrix-type ring): 102.16 µg
- Release rate ([1]; 400 mg matrix-type ring): 752.5 µg/day
- Increase of vaginal tissue concentrations, Phase 2 vs Phase 1 [2]: 2 fold
SMILES: Cc1nc(N(C)C(=O)Cc2ccc(-c3ccccn3)cc2)sc1S(N)(=O)=O [Pritelivir free base]
- Adverse findings for clinical signs or body weights [3]: did not result in any adverse findings
